Data: patent US20240270762A1, “PENICILLIN-BINDING PROTEIN INHIBITORS” (priority 2021, published 2024)
≈ marks a conversion by molar mass, not a printed value. Read-outs that look alike come from different tables or passages of the source.

Experiments:
[1] = tested on: P. aeruginosa CDC-0110; assay: microbe, parasite or virus in culture; assay type: cell-based; settings: Pseudomonas aeruginosa, CDC0110, read-out: Minimum inhibitory concentration, P. aeruginosa CDC-0110
[2] = tested on: P. aeruginosa CDC-0090; assay: microbe, parasite or virus in culture; assay type: cell-based; settings: Pseudomonas aeruginosa, CDC0090, read-out: Minimum inhibitory concentration, P. aeruginosa CDC-0090
[3] = biological target: T1, A. baumannii PBP1a (Acinetobacter baumannii, UniProt A0ABX6CK30); assay: Bocillin-FL competition binding via gel filtration, A. baumannii PBP1a; settings: competition binding assay using Bocillin-FL via gel filtration; read-out: A. baumannii PBP1a Potency
T1 sequence (A0ABX6CK30 1-851): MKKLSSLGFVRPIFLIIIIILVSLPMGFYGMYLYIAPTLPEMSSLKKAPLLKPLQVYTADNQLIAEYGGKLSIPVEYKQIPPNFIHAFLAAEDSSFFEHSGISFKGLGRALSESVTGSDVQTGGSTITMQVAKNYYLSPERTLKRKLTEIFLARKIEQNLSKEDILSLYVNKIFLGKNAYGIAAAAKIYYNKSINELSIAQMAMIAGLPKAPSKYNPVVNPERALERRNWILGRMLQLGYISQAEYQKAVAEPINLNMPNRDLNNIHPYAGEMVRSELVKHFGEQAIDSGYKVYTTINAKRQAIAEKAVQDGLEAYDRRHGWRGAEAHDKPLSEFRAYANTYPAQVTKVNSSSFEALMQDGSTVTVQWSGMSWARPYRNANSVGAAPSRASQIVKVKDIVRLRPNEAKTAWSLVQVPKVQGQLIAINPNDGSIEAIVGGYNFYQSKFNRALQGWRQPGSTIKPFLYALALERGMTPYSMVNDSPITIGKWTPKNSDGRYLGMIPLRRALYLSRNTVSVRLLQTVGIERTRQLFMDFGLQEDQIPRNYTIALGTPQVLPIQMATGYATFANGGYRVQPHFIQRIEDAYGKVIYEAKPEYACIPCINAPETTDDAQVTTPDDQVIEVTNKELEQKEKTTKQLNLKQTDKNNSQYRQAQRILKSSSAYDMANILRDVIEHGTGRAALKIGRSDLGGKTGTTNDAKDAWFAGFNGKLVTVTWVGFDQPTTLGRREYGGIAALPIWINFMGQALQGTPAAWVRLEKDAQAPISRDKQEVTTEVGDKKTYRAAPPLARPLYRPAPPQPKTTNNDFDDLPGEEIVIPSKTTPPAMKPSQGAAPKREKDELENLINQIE
Description: (§1) Affinity to A. baumannii PBP1a and PBP2 was assessed a competitive equilibrium binding assay using Bocillin-FL as the reporter molecule. Enzyme was pre-incubated with increasing concentrations of inhibitors, prior to addition of Bocillin and further incubation for 15 minutes. PBP bound with Bocillin-FL was separated by gel filtration using 96-well Zeba Spin size exclusion plates, and the fluorescence measured. The inhibitor affinity (reported as the EC50) was determined by plotting the fraction of PBP bound with Bocillin-FL at each inhibitor concentration against the inhibitor concentration, and fitting the data to the following equation:
(§2) [formula] • where y is the fraction bound at a given inhibitor concentration, ymin is the fraction bound when the enzyme is completely inactivated, ymax is the maximum (uninhibited) fraction bound, n is the Hill coefficient, and x is the inhibitor concentration.

[4] = tested on: P. aeruginosa CDC-0095; assay: microbe, parasite or virus in culture; assay type: cell-based; settings: Pseudomonas aeruginosa, CDC0095, read-out: Minimum inhibitory concentration, P. aeruginosa CDC-0095
[5] = tested on: P. aeruginosa CDC-0054; assay: microbe, parasite or virus in culture; assay type: cell-based; settings: Pseudomonas aeruginosa, CDC0054, read-out: Minimum inhibitory concentration, P. aeruginosa CDC-0054
[6] = biological target: A. baumannii PBP2 (Acinetobacter baumannii, UniProt D0C8Z9); assay: Bocillin-FL competition binding via gel filtration, A. baumannii PBP2
A. baumannii PBP2, sequence (D0C8Z9 whole entry): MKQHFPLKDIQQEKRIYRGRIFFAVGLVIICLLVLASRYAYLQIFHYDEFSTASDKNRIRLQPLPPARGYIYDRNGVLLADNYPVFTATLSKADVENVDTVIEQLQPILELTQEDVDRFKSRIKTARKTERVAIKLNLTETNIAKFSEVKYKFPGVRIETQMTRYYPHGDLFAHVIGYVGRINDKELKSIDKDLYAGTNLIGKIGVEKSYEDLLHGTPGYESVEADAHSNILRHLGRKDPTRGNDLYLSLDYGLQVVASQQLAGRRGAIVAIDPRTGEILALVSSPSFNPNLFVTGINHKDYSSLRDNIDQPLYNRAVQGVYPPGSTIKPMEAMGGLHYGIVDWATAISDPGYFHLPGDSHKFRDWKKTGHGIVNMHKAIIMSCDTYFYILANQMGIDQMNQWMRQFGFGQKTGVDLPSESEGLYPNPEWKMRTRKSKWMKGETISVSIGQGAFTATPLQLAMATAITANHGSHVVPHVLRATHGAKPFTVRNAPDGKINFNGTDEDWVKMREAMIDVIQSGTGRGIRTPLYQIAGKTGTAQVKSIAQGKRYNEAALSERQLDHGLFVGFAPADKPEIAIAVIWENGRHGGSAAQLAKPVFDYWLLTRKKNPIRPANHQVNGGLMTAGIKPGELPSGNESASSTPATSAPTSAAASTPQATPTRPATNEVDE
Description: as §1, §2

[7] = tested on: B. thailandensis ATCC 700388; assay: microbe, parasite or virus in culture; assay type: cell-based; settings: Burkholderia thailandensis, ATCC700388, read-out: Minimum inhibitory concentration (MIC), B. thailandensis ATCC 700388
[8] = tested on: P. aeruginosa ATCC 35151; assay: microbe, parasite or virus in culture; assay type: cell-based; settings: Pseudomonas aeruginosa, ATCC35151, read-out: Minimum inhibitory concentration, P. aeruginosa ATCC 35151
[9] = tested on: B. humptydooensis ATCC BAA-2767; assay: microbe, parasite or virus in culture; assay type: cell-based; settings: Burkholderia humptydooensis, ATCCBAA2767, read-out: Minimum inhibitory concentration (MIC), B. humptydooensis ATCC BAA-2767
[10] = tested on: P. aeruginosa (ΔmexAB-oprM); assay: Broth microdilution MIC in iron-depleted CAMHB (IDM); assay type: cell-based; settings: Pseudomonas aeruginosa, read-out: Minimum inhibitory concentration, P. aeruginosa ΔmexAB-oprM
[11] = tested on: P. aeruginosa ATCC 27853; assay: microbe, parasite or virus in culture; assay type: cell-based; settings: Pseudomonas aeruginosa, ATCC27853, read-out: Minimum inhibitory concentration, P. aeruginosa ATCC 27853

NCc1ccc(C(=O)N2CCC(N3CCN(C(=O)NC(C(=O)N[C@H]4Cc5ccc(F)c(C(=O)O)c5OB4O)c4cc(F)c(O)c(O)c4Cl)C3=O)CC2)cc1 (single isomer, unassigned) [Example 604]
MIC [1]: < 1 µg/mL | MIC [2]: < 1 µg/mL | EC50 [3]: 10 to 50 µM | MIC [4]: 2 to 4 µg/mL (≈ 2.59 to 5.19 µM) | MIC [5]: < 1 µg/mL | EC50 [6]: 10 to 50 µM | MIC [7]: < 1 µg/mL | MIC [8]: < 1 µg/mL | MIC [9]: < 1 µg/mL | MIC [10]: < 1 µg/mL | MIC [11]: < 1 µg/mL

NCc1cc(O)cc(C(=O)N2CCC(N3CCN(C(=O)N[C@@H](C(=O)N[C@H]4Cc5ccc(F)c(C(=O)O)c5OB4O)c4cc(F)c(O)c(O)c4Cl)C3=O)CC2)c1 (single isomer, unassigned) [Example 615]
MIC [1]: < 1 µg/mL | MIC [2]: < 1 µg/mL | EC50 [3]: 10 to 50 µM | MIC [4]: < 1 µg/mL | MIC [5]: < 1 µg/mL | EC50 [6]: 10 to 50 µM | MIC [7]: < 1 µg/mL | MIC [8]: < 1 µg/mL | MIC [9]: < 1 µg/mL | MIC [10]: < 1 µg/mL | MIC [11]: < 1 µg/mL

NCc1ccc(C(=O)N2CCC(N3CCN(C(=O)NC(C(=O)N[C@H]4Cc5ccc(F)c(C(=O)O)c5OB4O)c4cc(F)c(O)c(O)c4Cl)C3=O)CC2)cc1O (single isomer, unassigned) [Example 616]
MIC [1]: < 1 µg/mL | MIC [2]: < 1 µg/mL | EC50 [3]: 10 to 50 µM | MIC [4]: < 1 µg/mL | MIC [5]: < 1 µg/mL | EC50 [6]: 10 to 50 µM | MIC [7]: 2 to 4 µg/mL (≈ 2.54 to 5.08 µM) | MIC [8]: < 1 µg/mL | MIC [9]: < 1 µg/mL | MIC [10]: < 1 µg/mL | MIC [11]: < 1 µg/mL

O=C(O)c1c(F)ccc2c1OB(O)[C@@H](NC(=O)[C@@H](NC(=O)N1CCN(C3CCN(S(=O)(=O)c4ccc5[nH]nnc5c4)CC3)C1=O)c1cc(F)c(O)c(O)c1Cl)C2 (single isomer, unassigned) [Example 620]
MIC [1]: > 128 µg/mL | MIC [2]: 2 to 4 µg/mL (≈ 2.44 to 4.88 µM) | EC50 [3]: < 10 µM | MIC [4]: > 128 µg/mL | MIC [5]: 2 to 4 µg/mL (≈ 2.44 to 4.88 µM) | EC50 [6]: < 10 µM | MIC [7]: > 128 µg/mL | MIC [8]: < 1 µg/mL | MIC [9]: > 128 µg/mL | MIC [10]: < 1 µg/mL | MIC [11]: 2 to 4 µg/mL (≈ 2.44 to 4.88 µM)

O=C(O)c1c(F)ccc2c1OB(O)[C@@H](NC(=O)[C@H](NC(=O)N1CCN(C3CCN(S(=O)(=O)c4ccc5[nH]nnc5c4)CC3)C1=O)c1cc(F)c(O)c(O)c1Cl)C2 (single isomer, unassigned) [Example 621]
MIC [1]: < 1 µg/mL | MIC [2]: < 1 µg/mL | EC50 [3]: < 10 µM | MIC [4]: < 1 µg/mL | MIC [5]: < 1 µg/mL | EC50 [6]: < 10 µM | MIC [7]: 2 to 4 µg/mL (≈ 2.44 to 4.88 µM) | MIC [8]: < 1 µg/mL | MIC [9]: < 1 µg/mL | MIC [10]: < 1 µg/mL | MIC [11]: < 1 µg/mL

O=C(O)c1c(F)ccc2c1OB(O)[C@@H](NC(=O)[C@H](NC(=O)N1CCN(C3CCN(Cc4ccnnc4)CC3)C1=O)c1cc(F)c(O)c(O)c1Cl)C2 [Example 601, (R)-3-((R)-2-(2-chloro-5-fluoro-3,4-dihydroxyphenyl)-2-(2-oxo-3-(1-(pyridazin-4-ylmethyl)piperidin-4-yl)imidazolidine-1-carboxamido)acetamido)-7-fluoro-2-hydroxy-3,4-dihydro-2H-benzo[e][1,2]oxaborinine-8-carboxylic acid]
MIC [1]: < 1 µg/mL | MIC [2]: 2 to 4 µg/mL (≈ 2.74 to 5.48 µM) | EC50 [3]: < 10 µM | MIC [4]: 2 to 4 µg/mL (≈ 2.74 to 5.48 µM) | MIC [5]: < 1 µg/mL | EC50 [6]: 10 to 50 µM | MIC [7]: < 1 µg/mL | MIC [8]: < 1 µg/mL | MIC [9]: < 1 µg/mL | MIC [10]: < 1 µg/mL | MIC [11]: < 1 µg/mL

NCc1cccc(C(=O)N2CCC(N3CCN(C(=O)N[C@@H](C(=O)N[C@H]4Cc5ccc(F)c(C(=O)O)c5OB4O)c4cc(F)c(O)c(O)c4Cl)C3=O)CC2)c1 [Example 603, (R)-3-((R)-2-(3-(1-(3-(aminomethyl)benzoyl)piperidin-4-yl)-2-oxoimidazolidine-1-carboxamido)-2-(2-chloro-5-fluoro-3,4-dihydroxyphenyl)acetamido)-7-fluoro-2-hydroxy-3,4-dihydro-2H-benzo[e][1,2]oxaborinine-8-carboxylic acid]
MIC [1]: < 1 µg/mL | MIC [2]: 2 to 4 µg/mL (≈ 2.59 to 5.19 µM) | EC50 [3]: 10 to 50 µM | MIC [4]: 2 to 4 µg/mL (≈ 2.59 to 5.19 µM) | MIC [5]: < 1 µg/mL | EC50 [6]: 10 to 50 µM | MIC [7]: < 1 µg/mL | MIC [8]: < 1 µg/mL | MIC [9]: < 1 µg/mL | MIC ([10]; iron-depleted CAMHB (IDM), […]): < 1 µg/mL | MIC [11]: < 1 µg/mL

O=C(O)c1c(F)ccc2c1OB(O)[C@@H](NC(=O)[C@H](NC(=O)N1CCN(C3CCN(S(=O)(=O)c4ccc5[nH]nnc5c4)CC3)C1=O)c1cc(F)c(O)c(O)c1F)C2 [Example 622, (R)-3-((R)-2-(3-(1-((1H-benzo[d][1,2,3]triazol-5-yl)sulfonyl)piperidin-4-yl)-2-oxoimidazolidine-1-carboxamido)-2-(2,5-difluoro-3,4-dihydroxyphenyl)acetamido)-7-fluoro-2-hydroxy-3,4-dihydro-2H-benzo[e][1,2]oxaborinine-8-carboxylic acid]
MIC [1]: < 1 µg/mL | MIC [2]: < 1 µg/mL | MIC [4]: 2 to 4 µg/mL (≈ 2.49 to 4.98 µM) | MIC [5]: < 1 µg/mL | MIC [7]: 2 to 4 µg/mL (≈ 2.49 to 4.98 µM) | MIC [8]: < 1 µg/mL | MIC ([10]; iron-depleted CAMHB (IDM), […]): < 1 µg/mL | MIC [11]: 2 to 4 µg/mL (≈ 2.49 to 4.98 µM)

O=C(O)c1c(F)ccc2c1OB(O)[C@@H](NC(=O)[C@H](NC(=O)N1CCN(C3CCN(C(=O)c4cc(O)cc(O)c4)CC3)C1=O)c1cc(F)c(O)c(O)c1F)C2 [Example 623, (R)-3-((R)-2-(2,5-difluoro-3,4-dihydroxyphenyl)-2-(3-(1-(3,5-dihydroxybenzoyl)piperidin-4-yl)-2-oxoimidazolidine-1-carboxamido)acetamido)-7-fluoro-2-hydroxy-3,4-dihydro-2H-benzo[e][1,2]oxaborinine-8-carboxylic acid]
MIC [1]: < 1 µg/mL | MIC [2]: < 1 µg/mL | MIC [4]: < 1 µg/mL | MIC [5]: < 1 µg/mL | MIC [7]: < 1 µg/mL | MIC [8]: < 1 µg/mL | MIC ([10]; iron-depleted CAMHB (IDM), […]): < 1 µg/mL | MIC [11]: < 1 µg/mL
